For test [1], the target named is Chymotrypsinogen A (Bos taurus) (UniProt P00766). The test is described as follows: Inhibitory activity against Chymotrypsinogen enzyme was determined.
In test [2] the target is T1, Neutrophil elastase (Homo sapiens) (UniProt P08246).
T1 sequence (whole entry): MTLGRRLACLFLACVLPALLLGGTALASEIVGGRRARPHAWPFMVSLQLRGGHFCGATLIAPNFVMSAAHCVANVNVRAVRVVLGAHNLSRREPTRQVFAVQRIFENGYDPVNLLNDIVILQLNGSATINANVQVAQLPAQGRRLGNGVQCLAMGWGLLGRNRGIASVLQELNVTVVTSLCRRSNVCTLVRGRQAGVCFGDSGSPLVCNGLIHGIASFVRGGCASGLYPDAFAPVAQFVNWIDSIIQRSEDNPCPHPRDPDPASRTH
The test is described as follows: Inhibitory activity against human neutrophil elastase after 30 min incubation. The arrangement: concentration or dose not given beside the values.

For test [3], the target named is Chymotrypsinogen A (Bos taurus) (UniProt P00766). The test is described as follows: Inhibitory activity against Chymotrypsinogen was determined.

One may read the inhibition as the percentage by which the read-out fell short of the control. Consider `CC(=O)N[C@H](CC(C)C)C(=O)N[C@@]1(Cc2ccccc2)CC(=O)N(OS(C)(=O)=O)C1=O`, for which the k obs / 1 in test [1] worked out at 9 M⁻¹ s⁻¹. Also, the inhibition in test [2] was determined as 6%.

Compound `CC(=O)N[C@H](CC(C)C)C(=O)N[C@]1(Cc2ccccc2)CC(=O)N(OS(C)(=O)=O)C1=O` gave a k obs / 1 in test [1] of 244 M⁻¹ s⁻¹. This compound came in with an inhibition in test [2] of 72%.

For `CC(=O)N[C@]1(Cc2ccccc2)CC(=O)N(OS(C)(=O)=O)C1=O`, the k obs / 1 in test [1] worked out at 217 M⁻¹ s⁻¹. In addition, the inhibition in test [2] amounted to 56%.

`CC(=O)N[C@@H](CC(C)C)C(=O)N[C@]1(Cc2ccccc2)CC(=O)N(OS(C)(=O)=O)C1=O` showed a k obs / 1 in test [1] of 170 M⁻¹ s⁻¹. Also, in test [2], the inhibition came to 63%.

`CC(=O)N[C@@H](CC(C)C)C(=O)N[C@@]1(Cc2ccccc2)CC(=O)N(OS(C)(=O)=O)C1=O` returned an inhibition in test [2] of 24%. The same compound returned a k obs / 1 in test [3] of 28 M⁻¹ s⁻¹.

As to `CCCCOC(=O)N[C@@H](CC(C)C)C(=O)N[C@]1(Cc2ccccc2)CC(=O)N(OS(C)(=O)=O)C1=O`, in test [1], the k obs / 1 worked out at 180 M⁻¹ s⁻¹. The inhibition in test [2] turned out to be 48%.

Source of the values: ChEMBL document CHEMBL1131938, “Leucine-phenylalanine dipeptide-based N-mesyloxysuccinimides: synthesis of all four stereoisomers and their assay against serine proteases” (Bioorg Med Chem Lett, 1999).
